Source: US10000452B1, “Quinolone-based compounds, formulations, and uses thereof” (University of South Florida, priority 2016, dated 2018)
Values after ≈ are worked out from the molar mass of the structure shown. Where two headings read alike, the source gives them in different places.

How the values were obtained:
Pb-infected mice = assay: in vivo efficacy scouting assay against blood stages; set-up: species or system P. berghei; mice; settings: for activities in these scout assays: result in words; for inhibition in vivo at 50 mg/kg: Plasmodium berghei, 144 h, read-out: % Inhibition Day 6 PI
Description: The screening involved a single oral 50 mg/kg dose 1 day post infection (PI) and an assessment of parasitemia on days 3 PI and 6 PI (Table 6).
The screening was performed by treating two infected mice with a single 50 mg/kg oral dose of test compound suspended in PEG400 on day 1 postexposure (PE) followed by assessing parasitemia on days 3 and 6 PE.

[1] = tested on: malarial strain W2 (pyrimethamine and chloroquine-resistant); assay: in vitro antimalarial activity against multidrug resistant strain W2; assay type: cell-based, P. falciparum; settings: Plasmodium falciparum
J774 mammalian cells = assay: cytotoxicity to J774 cells; assay type: cell-based; settings: Mus musculus, J774, read-out: EC50 J774 (μM)
Description: This allowed a simplified method for comparing the different assays being simultaneously run. Additionally, each compound was also tested for cytotoxicity using mammalian J774 cell lines in a 96-well plate format.^12-14, 16

[2] = lipophilicity log D at pH 7.4; assay type: physicochemical; settings: octanol/water
Description: (§1) Furthermore, to profile the properties of the piperazinyl-4(1H)-quinolones, and to identify potential limitations, aqueous solubility and lipophilicity log D were experimentally determined via LC/MS-based assays as described by the Manetsch laboratory previously^8,10,31,32 (Tables 9-12). Encouragingly, the piperazinyl-4(1H)-quinolones were much more soluble than the previously described phenoxyethoxy-4(1H)-quinolone analogues.^19 As expected, the solubility of all compounds was affected by pH, with better solubility under more acidic conditions.
(§2) In parallel to testing the compounds for in vitro antimalarial activity, a limited structure-property relationship (SPR) study focusing on log D and aqueous solubility was conducted to assess potential physiochemical liabilities (FIG. 22). […] For these reasons, physicochemical properties were not strongly considered as selection criteria for in vivo efficacy studies.

[3] = tested on: P. berghei sporozoites expressing luciferase; assay: in vitro liver stage activity, luciferase sporozoites infecting HEPG2 hepatoma cells; assay type: cell-based; settings: Plasmodium berghei, HEPG2 cells
[4] = aqueous solubility (LC/MS- or HPLC-based assay); assay type: physicochemical
Description: as §1, §2

[5] = tested on: malarial strain TM90-C2B (mefloquine, chloroquine, atovaquone, and pyrimethamine-resistant); assay: microbe, parasite or virus in culture; assay type: cell-based, P. falciparum; settings: for EC50: Plasmodium falciparum, TM90, read-out: EC50 TM90-C2B (nM); for RI: RI = EC50 TM90-C2B/EC50 W2
Description: Ideally, the RI of a compound should lie between 0.3 and 3.0 in order to avoid rapidly inducing resistance in the parasite. […]

[6] = single oral 50 mg/kg dose 1 day PI, vs untreated animals
[7] = aqueous medium, pH 2, simulated gastric fluid, pH 2.0, read-out: Solubility pH 2.0
[8] = single oral 50 mg/kg dose 1 day PI
[9] = aqueous solution, pH 2, simulated gastric fluid, pH 2.0, read-out: Solubility pH 2.0
[10] = aqueous solution, pH 6.5, aqueous buffer, pH 6.5, read-out: Solubility pH 6.5
[11] = aqueous medium, pH 6.5, aqueous buffer, pH 6.5, read-out: Solubility pH 6.5

Row | SMILES | % Inhibition Day 6 PI (Pb-infected mice; [6]) | EC50 ([1]; read-out: EC50 W2 (nM)) [nM] | EC50 (J774 mammalian cells) [µM] | chromatographic logD [2] | EC50 [3] [µM] | solubility [4, 7] [µM] | activities in these scout assays (Pb-infected mice; [8]) | EC50 [5] [nM] | solubility [4, 9] [µM] | solubility [4, 10] [µM] | RI [5] | solubility ([4]; aqueous solution (buffer not named), pH 2, simulated gastric fluid, pH 2.0, read-out: Solubility pH 2.0) [µM] | solubility ([4]; aqueous solution (buffer not named), pH 6.5, aqueous buffer, pH 6.5, read-out: Solubility pH 6.5) [µM] | inhibition in vivo at 50 mg/kg (Pb-infected mice; [6]) [%] | solubility [4, 11] [µM] | Solubility pH 2.0 (μM) ([4]; pH 2.0) | Solubility pH 6.5 (μM) ([4]; pH 6.5) | inhibition in vivo at 50 mg/kg (Pb-infected mice; po) [%] | % Inhibition Day 3 PI (Pb-infected mice; [6]) | EC50 ([1]; read-out: EC50 W2) [nM]
1 | COC(=O)c1c[nH]c2cc(N3CCN(c4ccccc4)CC3)ccc2c1=O [Compound 8a, Methyl 4-oxo-7-(4-phenylpiperazin-1-yl)-1,4-dihydroquinoline-3-carboxylate] | little to moderate protection | 4.45 | > 20 | 2.58 | 0.0741 | 1 to 19.9 (≈ 0.363 to 7.23 µg/mL) | – | – | – | – | – | – | – | – | – | – | – | – | – | –
2 | COC(=O)c1c[nH]c2cc(CN3CCN(c4ccc(F)cc4)CC3)c(OC)cc2c1=O [Compound 8aa, Methyl 7-((4-(4-fluorophenyl)piperazin-1-yl)methyl)-6-methoxy-4-oxo-1,4-dihydroquinoline-3-carboxylate] | 56.9% | 1.79 | > 20 | 1.31 | 0.0323 | – | excellent activities | 218 | 60 to 79.9 (≈ 25.5 to 34 µg/mL) | ≥ 80 | – | – | – | – | – | – | – | – | – | –
3 | COC(=O)c1c[nH]c2ccc(CN3CCN(c4ccc(OC)cc4)CC3)cc2c1=O [Compound 8ag, Methyl 6-((4-(4-methoxyphenyl)piperazin-1-yl)methyl)-4-oxo-1,4-dihydroquinoline-3-carboxylate] | little to moderate protection | 164 | > 20 | 1.91 | > 0.1 | – | – | 2900 | – | – | 17.7 | ≥ 80 | 20 to 39.9 (≈ 8.15 to 16.3 µg/mL) | – | – | – | – | – | – | –
4 | COC(=O)c1c[nH]c2cc(N3CCN(Cc4ccccc4)CC3)ccc2c1=O [Compound 8b, Methyl 7-(4-benzylpiperazin-1-yl)-4-oxo-1,4-dihydroquinoline-3-carboxylate] | – | 16.2 | > 20 | 2.21 | 0.0845 | 60 to 80 (≈ 22.6 to 30.2 µg/mL) | – | – | – | – | – | – | – | ~40 | 60 to 80 (≈ 22.6 to 30.2 µg/mL) | 60-79.9 μM | 60-79.9 μM | – | – | –
5 | COC(=O)c1c[nH]c2cc(N3CCN(Cc4ccccc4)CC3)c(C)cc2c1=O [Compound 8g, Methyl 7-(4-benzylpiperazin-1-yl)-6-methyl-4-oxo-1,4-dihydroquinoline-3-carboxylate] | – | 13.2 | > 20 | 2.37 | > 0.1 | ≥ 80 | – | 982 | – | – | 74.4 | – | – | – | ≥ 80 | – | – | – | – | –
6 | COC(=O)c1c[nH]c2cc(CN3CCN(Cc4ccccc4)CC3)ccc2c1=O [Compound 8k, Methyl 7-((4-benzylpiperazin-1-yl)methyl)-4-oxo-1,4-dihydroquinoline-3-carboxylate] | little to moderate protection | 1.41 | 10.4 | 2.06 | 0.0437 | ≥ 80 | – | 153 | – | – | – | – | – | – | ≥ 80 | – | – | – | – | –
7 | COC(=O)c1c[nH]c2cc(CN3CCN(c4ccc(F)cc4)CC3)ccc2c1=O [Compound 8o, Methyl 7-((4-(4-fluorophenyl)piperazin-1-yl)methyl)-4-oxo-1,4-dihydroquinoline-3-carboxylate] | – | 1.75 | 2 | 2.38 | 0.00106 | – | excellent activities | 131 | ≥ 80 | ≥ 80 | 74.9 | – | – | – | – | – | – | > 85 | full inhibition | –
8 | COC(=O)c1c[nH]c2cc(CN3CCN(c4ccc(C(F)(F)F)cc4)CC3)ccc2c1=O [Compound 8p, Methyl 4-oxo-7-((4-(4-(trifluoromethyl)phenyl)piperazin-1-yl)methyl)-1,4-dihydroquinoline-3-carboxylate] | completely inhibited parasite growth | 0.315 | 10.7 | 3.23 | 0.0156 | – | excellent activities | 122 | ≥ 80 | 1 to 19.9 (≈ 0.445 to 8.86 µg/mL) | 387 | – | – | – | – | – | – | > 85 | full inhibition | –
9 | COC(=O)c1c[nH]c2cc(CN3CCN(c4ccccc4)CC3)c(C)cc2c1=O [Compound 8q, Methyl 6-methyl-4-oxo-7-((4-phenylpiperazin-1-yl)methyl)-1,4-dihydroquinoline-3-carboxylate] | little to moderate protection | 0.435 | 11.9 | 2.81 | 0.00692 | ≥ 80 | – | 147 | – | – | 338 | – | – | – | 60 to 79.9 (≈ 23.5 to 31.3 µg/mL) | – | – | – | – | –
10 | COC(=O)c1c[nH]c2cc(CN3CCN(Cc4ccccc4)CC3)c(C)cc2c1=O [Compound 8r, Methyl 7-((4-benzylpiperazin-1-yl)methyl)-6-methyl-4-oxo-1,4-dihydroquinoline-3-carboxylate] | little to moderate protection | 1.45 | > 20 | 1.94 | 0.00946 | ≥ 80 | – | 890 | – | – | – | – | – | – | ≥ 80 | – | – | – | – | –
11 | COC(=O)c1c[nH]c2cc(CN3CCN(c4ccc(OC)cc4)CC3)c(C)cc2c1=O [Compound 8t, Methyl 7-((4-(4-methoxyphenyl)piperazin-1-yl)methyl)-6-methyl-4-oxo-1,4-dihydroquinoline-3-carboxylate] | – | 0.575 | > 20 | 2.61 | 0.00411 | – | – | 177 | ≥ 80 | 20 to 39.9 (≈ 8.43 to 16.8 µg/mL) | 308 | – | – | – | – | – | – | – | – | –
12 | COC(=O)c1c[nH]c2cc(CN3CCN(c4ccc(F)cc4)CC3)c(C)cc2c1=O [Compound 8u, Methyl 7-((4-(4-fluorophenyl)piperazin-1-yl)methyl)-6-methyl-4-oxo-1,4-dihydroquinoline-3-carboxylate] | – | 0.843 | 15.7 | 2.9 | 0.00264 | – | – | 348 | ≥ 80 | 40 to 59.9 (≈ 16.4 to 24.5 µg/mL) | – | – | – | – | – | – | – | – | – | 0.843
13 | COC(=O)c1c[nH]c2cc(CN3CCN(c4ccccc4)CC3)c(OC)cc2c1=O [Compound 8w, Methyl 6-methoxy-4-oxo-7-((4-phenylpiperazin-1-yl)methyl)-1,4-dihydroquinoline-3-carboxylate] | 82.4% | 1.62 | > 20 | 1.32 | 0.113 | ≥ 80 | excellent activities | 493 | – | – | – | – | – | – | ≥ 80 | – | – | – | – | –
14 | COC(=O)c1c[nH]c2cc(CN3CCN(Cc4ccccc4)CC3)c(OC)cc2c1=O [Compound 8x, Methyl 7-((4-benzylpiperazin-1-yl)methyl)-6-methoxy-4-oxo-1,4-dihydroquinoline-3-carboxylate] | little to moderate protection | 5.45 | > 20 | 1.28 | 0.00926 | ≥ 80 | – | 2830 | – | – | – | – | – | – | 60 to 79.9 (≈ 25.3 to 33.7 µg/mL) | – | – | – | – | –
15 | COC(=O)c1c[nH]c2cc(CN3CCN(c4ccc(OC)cc4)CC3)c(OC)cc2c1=O [Compound 8z, Methyl 6-methoxy-7-((4-(4-methoxyphenyl)piperazin-1-yl)methyl)-4-oxo-1,4-dihydroquinoline-3-carboxylate] | 70.6% | 3.38 | 15.7 | 2.19 | 0.0104 | – | excellent activities | 861 | ≥ 80 | ≥ 80 | – | – | – | – | – | – | – | – | – | –
